In the NIST ThermoML archive (doi:10.1021/acs.jced.5b01075):
“And” between values parts separate entries of the source, which are not always exact repeats. Identical values can stand only once. Numbers after ± are expanded uncertainties.

Settings: 101.33 kPa, Liquid; for speed of sound: Sing-around technique in a fixed-path interferometer; for mass density: Vibrating tube method

SMILES: Cc1ccccc1 [toluene]
- speed of sound (293.15 K): 1326.5 ± 0.7 m/s
- mass density (293.15 K): 866.816 ± 0.16 kg/m3 and 866.8 ± 0.4 kg/m3
- speed of sound (303.15 K): 1283.5 ± 0.7 m/s
- mass density (303.15 K): 857.497 ± 0.16 kg/m3 and 857.5 ± 0.4 kg/m3
- speed of sound (313.15 K): 1241 ± 0.7 m/s
- mass density (313.15 K): 848.114 ± 0.16 kg/m3 and 848.1 ± 0.4 kg/m3
- speed of sound (323.15 K): 1198.9 ± 0.6 m/s
- mass density (323.15 K): 838.661 ± 0.17 kg/m3 and 838.7 ± 0.4 kg/m3
- speed of sound (333.15 K): 1157.5 ± 0.6 m/s
- mass density (333.15 K): 829.124 ± 0.17 kg/m3 and 829.1 ± 0.4 kg/m3
- mass density (343.15 K): 819.5 ± 0.4 kg/m3
- mass density (353.15 K): 809.7 ± 0.4 kg/m3
